From patent US20230167073A1 (Teijin Pharma Limited, priority 2020, published 2023)

target: T1, Human TRPC6 (Homo sapiens, UniProt Q9Y210); assay: Evaluation of TRPC6 channel inhibitory activity (1), FLIPR Calcium 5 Assay Kit, OAG stimulation (Compound Nos. 1-1293); assay type: cell-based; settings: Human TRPC6 stably-expressing cells, OAG 30 μM, FLIPR Calcium 5 Assay Kit; read-out: Inhibitory activity (pIC50 class) (converted)
T1 construct: expressed in transfected cells
T1 sequence (Q9Y210 1-931): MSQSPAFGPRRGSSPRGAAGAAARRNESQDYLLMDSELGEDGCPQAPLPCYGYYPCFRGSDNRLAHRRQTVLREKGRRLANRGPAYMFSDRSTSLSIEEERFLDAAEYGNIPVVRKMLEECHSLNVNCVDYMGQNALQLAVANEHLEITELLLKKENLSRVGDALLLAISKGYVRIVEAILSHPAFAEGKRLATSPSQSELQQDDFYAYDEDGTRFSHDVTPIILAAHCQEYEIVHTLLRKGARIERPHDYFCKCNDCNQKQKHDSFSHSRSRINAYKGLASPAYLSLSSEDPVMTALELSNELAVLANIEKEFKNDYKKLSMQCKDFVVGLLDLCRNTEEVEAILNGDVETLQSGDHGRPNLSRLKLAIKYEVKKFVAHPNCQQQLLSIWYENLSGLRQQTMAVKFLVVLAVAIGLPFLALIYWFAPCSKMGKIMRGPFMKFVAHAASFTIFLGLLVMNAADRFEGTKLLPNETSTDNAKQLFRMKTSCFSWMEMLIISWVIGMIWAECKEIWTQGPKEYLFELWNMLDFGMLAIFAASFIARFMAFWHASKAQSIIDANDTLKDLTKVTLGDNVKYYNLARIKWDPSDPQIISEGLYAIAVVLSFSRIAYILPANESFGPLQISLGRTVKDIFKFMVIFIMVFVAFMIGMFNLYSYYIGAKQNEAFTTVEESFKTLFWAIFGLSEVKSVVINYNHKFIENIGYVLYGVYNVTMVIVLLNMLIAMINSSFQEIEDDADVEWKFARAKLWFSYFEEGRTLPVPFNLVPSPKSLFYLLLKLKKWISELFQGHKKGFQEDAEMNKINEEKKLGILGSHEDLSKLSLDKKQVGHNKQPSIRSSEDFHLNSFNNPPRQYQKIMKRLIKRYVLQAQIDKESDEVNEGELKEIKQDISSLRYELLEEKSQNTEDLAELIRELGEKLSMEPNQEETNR
Outline: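 Calcium influx read by FLIPR fluorescence in cells stably expressing human TRPC6, dye-loaded 30 min. Compounds preincubated 20 min, then OAG stimulation at 30 μM final. Inhibition fitted by four-parameter logistic regression to give pIC50, reported as +/++/+++ categories.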

Compound	IC50 [nM]
Cn1nc(C2CC2)cc1Oc1cc(C#N)ccc1-c1cc(OCCCN)ccn1 [compound 585, 4-[4-(3-aminopropoxy)pyridin-2-yl]-3-(5-cyclopropyl-2-methylpyrazol-3-yl)oxybenzonitrile]	> 1000
Cn1nc(C2CC2)cc1Oc1cc(C#N)ccc1-c1cc(NCCCO)ccn1 [compound 586, 3-(5-cyclopropyl-2-methylpyrazol-3-yl)oxy-4-[4-(3-hydroxypropylamino)pyridin-2-yl]benzonitrile]	> 1000
Cn1nc(-c2ccccn2)cc1Oc1cc(C#N)ccc1-c1cc(CCN)ccn1 [compound 587, 4-[4-(2-aminoethyl)pyridin-2-yl]-3-(2-methyl-5-pyridin-2-ylpyrazol-3-yl)oxybenzonitrile]	< 10
Cn1nc(-c2ncco2)cc1Oc1cc(C#N)ccc1-c1ccc([C@H](O)CN)cn1 [compound 588, 4-[5-[(1S)-2-amino-1-hydroxyethyl]pyridin-2-yl]-3-[2-methyl-5-(1,3-oxazol-2-yl)pyrazol-3-yl]oxybenzonitrile]	10 to 1000
Cn1nc(-c2ccccn2)cc1Oc1cc(C#N)ccc1-c1ccc(CN)n2cnnc12 [compound 589, 4-[5-(aminomethyl)-[1,2,4]triazolo[4,3-a]pyridin-8-yl]-3-(2-methyl-5-pyridin-2-ylpyrazol-3-yl)oxybenzonitrile]	10 to 1000
Cc1cc(Oc2cc(C#N)ccc2-c2ccc(CN)n3cnnc23)cc(N2CCOCC2)n1 [compound 590, 4-[5-(aminomethyl)-[1,2,4]triazolo[4,3-a]pyridin-8-yl]-3-(2-methyl-6-morpholin-4-ylpyridin-4-yl)oxybenzonitrile]	> 1000
Cc1cc(Oc2cc(C#N)ccc2-c2ccc([C@H](O)CN)cn2)cc(OC2COC2)n1 [compound 591, 4-[5-[(1S)-2-amino-1-hydroxyethyl]pyridin-2-yl]-3-[2-methyl-6-(oxetan-3-yloxy)pyridin-4-yl]oxybenzonitrile]	> 1000
Cn1nc(-c2nccs2)cc1Oc1cc(C#N)ccc1-c1ncc(CN)cn1 [compound 592, 4-[5-(aminomethyl)pyrimidin-2-yl]-3-[2-methyl-5-(1,3-thiazol-2-yl)pyrazol-3-yl]oxybenzonitrile]	< 10
Cc1cc(Oc2cc(C#N)ccc2-c2nnc(CN)s2)cc(N2CCOCC2)n1 [compound 593, 4-[5-(aminomethyl)-1,3,4-thiazol-2-yl]-3-(2-methyl-6-morpholin-4-ylpyridin-4-yl)oxybenzonitrile]	> 1000
Cn1nc(C2CC2)cc1Oc1cc(C#N)ccc1-c1cccc2c(N)noc12 [compound 594, 4-(3-amino-1,2-benzoxazol-7-yl)-3-(5-cyclopropyl-2-methylpyrazol-3-yl)oxybenzonitrile]	> 1000
Cc1cc(Oc2cc(C#N)ccc2-c2ncc(CCN)cn2)cc(-c2nccs2)n1 [compound 595, 4-[5-(2-aminoethyl)pyrimidin-2-yl]-3-[2-methyl-6-(1,3-thiazol-2-yl)pyridin-4-yl]oxybenzonitrile]	10 to 1000

Second part, the compound after the results:

IC50 [nM]	Compound
10 to 1000	Cc1cc(Oc2cc(C#N)ccc2-c2ncc(CCN)cn2)cc(-c2ncco2)n1 [compound 596, 4-[5-(2-aminoethyl)pyrimidin-2-yl]-3-[2-methyl-6-(1,3-oxazol-2-yl)pyridin-4-yl]oxybenzonitrile]
10 to 1000	Cc1cc(Oc2cc(C#N)ccc2-c2ncc(CCN)cn2)cc(-c2cnccn2)n1 [compound 597, 4-[5-(2-aminoethyl)pyrimidin-2-yl]-3-(2-methyl-6-pyrazin-2-ylpyridin-4-yl)oxybenzonitrile]
10 to 1000	Cc1nc(Oc2cc(C#N)ccc2-c2ncc(CCN)cn2)cc(-c2nccs2)n1 [compound 598, 4-[5-(2-aminoethyl)pyrimidin-2-yl]-3-[2-methyl-6-(1,3-thiazol-2-yl)pyrimidin-4-yl]oxybenzonitrile]
< 10	Cc1nc(Oc2cc(C#N)ccc2-c2ncc(CCN)cn2)cc(-c2ccccn2)n1 [compound 599, 4-[5-(2-aminoethyl)pyrimidin-2-yl]-3-(2-methyl-6-pyridin-2-ylpyrimidin-4-yl)oxybenzonitrile]
10 to 1000	Cc1cc(Oc2cc(C#N)ccc2-c2ncc([C@H](O)CN)cn2)cc(-c2nc(C)cs2)n1 [compound 600, 4-[5-[(1S)-2-amino-1-hydroxyethyl]pyrimidin-2-yl]-3-[2-methyl-6-(4-methyl-1,3-thiazol-2-yl)pyridin-4-yl]oxybenzonitrile]
10 to 1000	Cc1cc(Oc2cc(C#N)ccc2-c2ncc([C@H](O)CN)cn2)cc(-c2ncc(C)s2)n1 [compound 601, 4-[5-[(1S)-2-amino-1-hydroxyethyl]pyrimidin-2-yl]-3-[2-methyl-6-(5-methyl-1,3-thiazol-2-yl)pyridin-4-yl]oxybenzonitrile]
10 to 1000	Cc1nc(Oc2cc(C#N)ccc2-c2ncc(CCN)cn2)cc(-c2ncc(C)s2)n1 [compound 602, 4-[5-(2-aminoethyl)pyrimidin-2-yl]-3-[2-methyl-6-(5-methyl-1,3-thiazol-2-yl)pyrimidm-4-yl]oxybenzonitrile]
10 to 1000	Cc1nc(Oc2cc(C#N)ccc2-c2ccc([C@H](O)CN)cn2)cc(-c2nccs2)n1 [compound 603, 4-[5-[(1S)-2-amino-1-hydroxyethyl]pyridin-2-yl]-3-[2-methyl-6-(1,3-thiazol-2-yl)pyrimidin-4-yl]oxybenzonitrile]
< 10	Cc1nc(Oc2cc(C#N)ccc2-c2ccc([C@H](O)CN)cn2)cc(-c2ccccn2)n1 [compound 604, 4-[5-[(1S)-2-amino-1-hydroxyethyl]pyridin-2-yl]-3-(2-methyl-6-pyridin-2-ylpyrimidin-4-yl)oxybenzonitrile]
10 to 1000	Cc1cc(Oc2cc(C#N)ccc2-c2ccc([C@H](O)CN)cn2)cc(-c2ncc(C)s2)n1 [compound 605, 4-[5-[(1S)-2-amino-1-hydroxyethyl]pyridin-2-yl]-3-[2-methyl-6-(5-methyl-1,3-thiazol-2-yl)pyridin-4-yl]oxybenzonitrile]
10 to 1000	Cc1nc(Oc2cc(C#N)ccc2-c2ccc([C@H](O)CN)cn2)cc(-c2ncc(C)s2)n1 [compound 606, 4-[5-[(1S)-2-amino-1-hydroxyethyl]pyridin-2-yl]-3-[2-methyl-6-(5-methyl-1,3-thiazol-2-yl)pyrimidin-4-yl]oxybenzonitrile]
> 1000	Cc1cc(Oc2cc(C#N)ccc2-c2cnc(CN)s2)cc(N2CCOCC2)n1 [compound 607, 4-[2-(aminomethyl)-1,3-thiazol-5-yl]-3-(2-methyl-6-morpholin-4-ylpyridin-4-yl)oxybenzonitrile]
> 1000	Cn1nc(-c2ccccn2)cc1Oc1cc(C#N)ccc1-c1cnc(CN)s1 [compound 608, 4-[2-(aminomethyl)-1,3-thiazol-5-yl]-3-(2-methyl-5-pyridin-2-ylpyrazol-3-yl)oxybenzonitrile]
< 10	Cn1nc(-c2ccccn2)cc1Oc1cc(C#N)ccc1-c1ccc(CN)cn1 [compound 609, 4-[5-(aminomethyl)pyridin-2-yl]-3-(2-methyl-5-pyridin-2-ylpyrazol-3-yl)oxybenzonitrile]
< 10	Cn1nc(C2CC2)cc1Oc1cc(C#N)ccc1-c1ccc(CC2(N)COC2)cn1 [compound 610, 4-[5-[(3-aminooxetan-3-yl)methyl]pyridin-2-yl]-3-(5-cyclopropyl-2-methylpyrazol-3-yl)oxybenzonitrile]
